Experimental data reported in patent publication US20190269721A1, “METHODS AND COMPOSITIONS FOR DEGRADING CALCIUM PHOSPHATE AND FOR TREATING CALCIFICATION DISORDERS” (MERZ NORTH AMERICA, INC., priority 2016, published 2019).
Read-outs that look alike come from different tables or passages of the source.

Tests used:
[1] = background statement; cited from earlier work
[2] = Degradation of Radiesse calcium hydroxyapatite filler injected into human skin samples (histology of punch biopsy); settings: for dissolution of calcium hydroxyapatite in the samples: 24 hours after treatment, histology
Experimental: Human skin samples (two living skin samples taken from living tissue in each group) were injected with 0.4 mL Radiesse®.
The samples were then randomized to three treatment groups: topical sodium metabisulfite (25% (w/v) SMB, formulated in petrolatum jelly, about 1-2 grams SMB applied topically to each site on the skin) application with occlusion, intralesional injection of about 0.4-0.8 mL sodium thiosulfate solution (STS, concentration 12.5 g/50 mL i.e., 0.25 g/mL), or both. In the control group, samples were not treated after the Radiesse® injection.
Twenty-four hours after treatment, a 4-mm punch biopsy was obtained and processed for histology to evaluate the presence, absence, or degradation of calcium hydroxyapatite (FIGS. 1E-1F). A blinded, board-certified dermatopathologist read the samples and determined the amount of calcium present in each sample.

[3] = Degradation of Radiesse calcium hydroxyapatite filler injected into porcine samples (histology of punch biopsy); settings: for dissolution of calcium hydroxyapatite in the samples: 24 hours after treatment, histology
Experimental: In a prospective, single-center clinical trial, 12 porcine samples (pieces of fresh pork shoulder) were injected with Radiesse®, with volumes ranging from 0.4 to 0.8 mL.
The samples were then randomized to three treatment groups: topical sodium metabisulfite (25% (w/v) SMB, formulated in petrolatum jelly: about 1-2 grams SMB applied topically to each site on the skin, 25% (w/v) sodium metabisulfite in 120 ml gel) application with occlusion, intralesional injection of about 0.2 mL of sodium thiosulfate solution (STS, concentration 12.5 g/50 mL, i.e., 0.25 g/mL or 25% (w/v)), or both. The volume ratio of Radiesse:STS solution ranged from 2:1 to 4:1. In the control group, samples were not treated after the Radiesse® injection.
Twenty-four hours after treatment, a 4-mm punch biopsy was obtained and processed for histology to evaluate the presence, absence, or degradation of calcium hydroxyapatite (FIGS. 1A-1D). A blinded, board-certified dermatopathologist read the samples and determined the amount of calcium present in each sample.

[4] = Experimental: A filler composition comprising CaHA and HA (hyaluronic acid) was used in a subject. 0.4 ml of CaHA was mixed with 0.4 ml of a highly cohesive HA filler and injected into the volar surface of a human forearm. 0.4 ml of intralesional (IL) STS was injected intralesionally into the treated area. 4 hours after treatment, a 5-mm punch biopsy was obtained. H &E was used to evaluate the presence, absence, or degradation of calcium hydroxyapatite and hyaluronic acid. A blinded, board-certified dermatopathologist read the samples and determined the amount of calcium present in each sample.
[5] = remark: listed apart in the source
Experimental: (§1) At visit 1, deep CaHA nodules were injected using a 32-gauge half inch needle with STS (STS, concentration 12.5 g/50 mL, i.e., 0.25 g/mL; 2 injections; 0.3 mL total). At visit 2 (about 3-4 weeks after visit 1), the patient received subsequent injections using a 32-gauge half inch needle on a luer lock syringe of STS (0.3 mL total) to superficial CaHA nodules.

[6] = 1-2 h post-STS injection
Experimental: In the prospective histology study, 3 patients received Radiesse® injections (12-20 injections/patient) followed by intralesional STS injection (STS, concentration 12.5 g/50 mL, i.e., 0.25 g/mL) in the abdomen/arm prior to abdominoplasty/brachioplasty. Patients received various Radiesse:STS solution volume ratios ranging from 1:1 to 1:2.5, including patient 1: 0.5 mL CaHA and 0.5 mL STS per site (volume ratio of CaHA:STS is 1:1); patient 2: 0.2 mL CaHA and 0.5 mL STS per site (volume ratio of CaHA:STS is 1:2.5); patient 3: 0.15 mL CaHA and 0.3 mL STS per site (volume ratio of CaHA:STS is 1:2). Tissue was harvested about 1-2 h after STS injection, and a 4-mm punch biopsy was assessed for the presence of CaHA (using hematoxylin-eosin sections).
as §1

[7] = over the next 4 days or so after visit 1

Compound: O=C(O)CN(CCN(CC(=O)O)CC(=O)O)CC(=O)O [EDTA, ethylenediaminetetraacetic acid]
- ability to dissolve / reduce calcium hydroxyapatite [1]: unsuccessful

Compound: O=S([O-])S(=O)(=O)[O-].[Na+].[Na+] [SMB, sodium metabisulfite]
- effects on collagen or surrounding structures [2]: no apparent deleterious effects
- dissolution of calcium hydroxyapatite in the samples ([2]; human skin samples): reduced, but did not entirely clear
- % of calcium hydroxyapatite degraded 24 hrs after treatment [3]: ~50%
- dissolution of calcium hydroxyapatite in the samples ([3]; porcine samples): reduced, but did not entirely clear

Compound: O=S([O-])([O-])=S.[Na+].[Na+] [STS, sodium thiosulfate]
- reduction of the amount of calcium phosphate tissue filler ([4]; about 24 hours after administration): about 100%
- effects on collagen or surrounding structures ([4]; human tissue, intralesional STS): no apparent deleterious effects
- dissolution of CaHA in a mixture of CaHA and HA ([4]; reduced time period of 4 hours): completely dissolve
- dissolution of calcium hydroxyapatite in the sample ([4]; twenty-four hours after intralesional STS injection, 0.4 ml STS, 0.4 ml CaHA + 0.4 ml HA): completely dissolved
- % of calcium hydroxyapatite degraded 24 hrs after treatment ([2]; human skin samples, 0.4 mL Radiesse, STS 0.25 g/mL about 0.4-0.8 mL intralesional, SMB 25% (w/v) topical with occlusion, 4-mm punch biopsy): 100%
- dissolution of calcium hydroxyapatite in the samples ([2]; human skin samples): completely dissolved
- effects on collagen or surrounding structures ([2]; human tissue, intralesional STS and/or topical SMB): no apparent deleterious effects
- time until burning sensation resolved ([5]; after immediate ice application): ≤ 1 min
- burning sensation upon injection, 10-point pain scale ([5]; both visits): 5-6
- erythema [5, 7]: concomitant reduction in erythema
- nodule sizes (patient reported) [5, 7]: progressive reduction in nodule sizes
- effect on deep nodules ([5]; visit 1, first STS injection, 0.3 mL total, 0.25 g/mL): immediate softening
- time until superficial nodules softened and became semi-fluctuant ([5]; visit 2, STS 0.3 mL total): 1 to 2 min
- % of calcium hydroxyapatite degraded 24 hrs after treatment ([3]; porcine samples, 0.4-0.8 mL Radiesse, STS 25% (w/v) about 0.2 mL intralesional, SMB 25% (w/v) topical with occlusion, 4-mm punch biopsy): 100%
- dissolution of calcium hydroxyapatite in the samples ([3]; porcine samples): completely dissolved
- CaHA dissolution in histologic analyses ([6]; all human tissue samples, CaHA:STS volume ratio 1:1 to 1:2.5): markedly dissolved
- CaHA decrease ([6]; human tissue samples): no less than 70%

Compound: hyaluronidase
- ability to dissolve / reduce calcium hydroxyapatite [1]: cannot effectively dissolve
